Results on 15 molecules are retold here after patent US11034685B2, “Aminopyridine derivatives as TAM family kinase inhibitors” (SignalChem Lifesciences Corporation, priority 2013, dated 2021).

Each structure is given as a SMILES string. A value given as a limit tells only on which side of the number the result lay.

Holding throughout (type): biochemical
For test [1], the target named is T1, Recombinant human Tyro3 (455-end) (Homo sapiens, UniProt Q06418).
T1 construct: GST (N); made in house; host or cells: Sf9 insect cells (baculovirus)
T1 sequence (Q06418 455-890 limits assumed): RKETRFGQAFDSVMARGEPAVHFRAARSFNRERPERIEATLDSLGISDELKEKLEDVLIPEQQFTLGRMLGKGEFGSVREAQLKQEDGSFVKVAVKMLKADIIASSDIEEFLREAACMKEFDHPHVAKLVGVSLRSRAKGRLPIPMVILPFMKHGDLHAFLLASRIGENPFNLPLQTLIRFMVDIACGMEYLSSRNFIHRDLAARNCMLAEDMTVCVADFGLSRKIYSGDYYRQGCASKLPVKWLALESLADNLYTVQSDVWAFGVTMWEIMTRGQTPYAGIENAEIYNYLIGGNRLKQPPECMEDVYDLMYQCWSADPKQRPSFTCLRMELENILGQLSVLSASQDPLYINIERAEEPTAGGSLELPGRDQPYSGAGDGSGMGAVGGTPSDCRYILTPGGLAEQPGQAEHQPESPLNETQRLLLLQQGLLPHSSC
Kind of test: Kinase enzymatic activity assay ([33P]-ATP phosphate transfer), Tyro3. The settings on record: inhibitory activity on Tyro3; class symbols. As for the experimental part:
(§1) Preparation of Active Recombinant Kinase Proteins:
(§2) Recombinant human Tyro3 (455-end, the gene accession number NM_006293), human Axl (473-end, the gene accession number NM_021913) and human Mer (578-872, the gene accession number NM_006343) were independently expressed by baculovirus in Sf9 insect cells using an N-terminal GST tag. The recombinant proteins were stored at −70° C. in a medium containing 50 mM Tris-HCl, pH 7.5, 150 mM NaCl, 10 mM glutathione, 0.1 mM EDTA, 0.25 mM DTT, 0.1 mM PMSF and 25% glycerol. The recombinant proteins were aliquoted into smaller quantities after centrifugation to avoid repeated handling and multiple freeze/thaw cycles for the most favorable performance.
(§3) Preparation of Assay Reagents:
(§4) Kinase Assay Buffer: This buffer solution consisted of the following components: 25 mM MOPS, pH 7.2, 12.5 mM β-glycerol-phosphate, 25 mM MgCl2, 5 mM EGTA, 2 mM EDTA and DTT 0.25 mM which was added prior to use.
(§5) Kinase Dilution Buffer: Kinase Assay Buffer was diluted at a 1:4 ratio (5× dilution) with distilled water.
(§6) [^33P]-ATP assay cocktail: In a designated radioactive working area, a 250 μM [^33P]-ATP assay cocktail was prepared by the addition of the following components: 150 μL of 10 mM ATP stock solution, 100 μL [^33P]-ATP (1 mci/100 μL), 5.75 mL of kinase assay buffer. This solution was stored in 1 mL aliquots at −20 OC.
(§7) ATP stock solution (10 mM): The ATP stock solution was prepared by dissolving 55 mg of ATP in 10 mL of kinase assay buffer. It was stored in 200 μL aliquots at −20° C.
(§8) Active Kinase Stock Solution: The active recombinant kinase protein (0.1 μg/μL) was diluted with Kinase Dilution Buffer and the activity was assayed using a serial dilution method. The specific activity is expressed in nmoL/min/mg.
(§9) Substrates: poly(4:1 glu:tyr) is the substrate used for each kinase Tyro3, Axl and Mer: The peptide substrate was dissolved in water to give the final concentration of 1 mg/mL.
(§10) Test compound solution: Test compound was dissolved in DMSO to obtain a 10 mM solution. The assay solution was prepared by adding 5 μL of this solution to […] of 10% DMSO/water to obtain the final concentration of 50 μM.
(§11) The enzymatic activity of all three kinases was determined as follows. Using a 96-well plate, the wells were divided into three categories: Blank wells, […] and Test wells. In Test wells, 5 μL of the test compound solution and 5 μL of the substrate solution were added. In Control wells, 5 μL of 10% DMSO/water and 5 μL of the substrate solution were added. In Blank wells, 10 μL of 10% DMSO/water was added. To each well was added 10 μL of Active Kinase Stock Solution to make up the volume in each well to 20 μL. All test samples, controls and blanks were run in duplicate. The reaction was initiated by the addition of 5 μL of [^33P]-ATP assay cocktail, bringing the final volume up to 25 μL in every well. The mixture was incubated at room temperature for 30 minutes. The reaction was terminated by transferring 10 μL of the reaction mixture into a Millipore MultiScreen filter plate (cat. number MSPHN6B50). The filter plate was washed in a 1% phosphoric acid solution with constant gentle shaking for 15 minutes and this step was repeated once. After the plate was dried in air, scintillation fluid was added to each well and the radioactivity in each well in CPM was counted by a Microbeta TriLux. The corrected CPM in each test well was determined by subtracting the average value of Blank well values. Percentage of inhibition of the kinase enzymatic activity by the test compound was determined using the following formula: […]
(§12) The IC50 values were determined in a similar way following a serial dilution of the test compound. The percentage of inhibition at each concentration was calculated following the above formula. The IC50 was estimated from the curve of % Inhibition against Concentration in log unit using Prism 5, version 5.01.

Test [2] addresses T2, human Mer (578-872) (Homo sapiens, UniProt Q12866).
T2 construct: GST (N); made in house; host or cells: Sf9 insect cells (baculovirus)
T2 sequence (Q12866 578-872): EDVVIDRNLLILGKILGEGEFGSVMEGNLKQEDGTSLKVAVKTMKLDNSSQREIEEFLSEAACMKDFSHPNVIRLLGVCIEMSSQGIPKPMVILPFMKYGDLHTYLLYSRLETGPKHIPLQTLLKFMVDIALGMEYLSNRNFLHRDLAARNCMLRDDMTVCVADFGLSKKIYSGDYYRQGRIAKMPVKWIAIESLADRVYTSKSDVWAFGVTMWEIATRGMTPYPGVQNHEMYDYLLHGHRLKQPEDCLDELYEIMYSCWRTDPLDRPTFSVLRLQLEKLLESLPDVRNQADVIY
Put plainly: Kinase enzymatic activity assay ([33P]-ATP phosphate transfer), Mer. To be noted: inhibitory activity on Mer; class symbols. As for the experimental part: as §1, §2, §3, §4, §5, §6, §7, §8, §9, §10, §11, §12

For test [3], the target named is T3, human Axl (473-end) (Homo sapiens, UniProt P30530).
T3 construct: GST (N); made in house; host or cells: Sf9 insect cells (baculovirus)
T3 sequence (P30530 473-894 limits assumed): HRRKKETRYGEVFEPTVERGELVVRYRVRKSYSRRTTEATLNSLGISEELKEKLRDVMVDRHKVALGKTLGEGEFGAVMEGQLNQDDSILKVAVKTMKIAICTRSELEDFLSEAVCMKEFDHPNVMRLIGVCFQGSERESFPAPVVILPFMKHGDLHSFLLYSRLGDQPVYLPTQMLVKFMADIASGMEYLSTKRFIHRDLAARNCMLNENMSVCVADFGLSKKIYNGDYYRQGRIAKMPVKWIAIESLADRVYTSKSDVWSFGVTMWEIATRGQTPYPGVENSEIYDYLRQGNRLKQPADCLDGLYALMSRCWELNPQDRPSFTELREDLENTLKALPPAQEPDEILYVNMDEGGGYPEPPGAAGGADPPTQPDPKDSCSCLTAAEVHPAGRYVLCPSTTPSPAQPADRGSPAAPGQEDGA
Kind of test: Kinase enzymatic activity assay ([33P]-ATP phosphate transfer), Axl. To be noted: inhibitory activity on Axl; class symbols. As for the experimental part:
as §1, §2, §3, §4, §5, §6, §7, §8, §9, §10, §11, §12

For the molecule `Nc1ncc(-c2cnn(C3CCN(C(=O)C4CC4)CC3)c2)cc1-c1ncc(-c2ccc(Cl)cc2)o1` [(4-(4-(6-amino-5-(5-(4-chlorophenyl)oxazol-2-yl)pyridin-3-yl)-1H-pyrazol-1-yl)piperidin-1-yl)(cyclopropyl)methanone], the IC50 was under 500 nM in test [1], over 10000 nM in test [2] and under 500 nM in test [3].
For the molecule `Nc1ncc(-c2cnn(C3CCNCC3)c2)cc1-c1nnc(-c2cnccn2)o1` [5-(1-(piperidin-4-yl)-1H-pyrazol-4-yl)-3-(5-(pyrazin-2-yl)-1,3,4-oxadiazol-2-yl)pyridin-2-amine], the IC50 in test [1] was under 500 nM; in test [2], 500 to 1000 nM; in test [3], under 500 nM.
As to `CN1CCC(n2cc(-c3cnc(N)c(-c4noc(-c5ccccc5)n4)c3)cn2)CC1` [5-(1-(1-methylpiperidin-4-yl)-1H-pyrazol-4-yl)-3-(5-phenyl-1,2,4-oxadiazol-3-yl)pyridin-2-amine], the IC50 in test [1] was under 500 nM; in test [2], 500 to 1000 nM; in test [3], under 500 nM.
Regarding `Nc1ncc(-c2cnn(C3CCNCC3)c2)cc1-c1ncc(-c2cccnc2)o1` [5-(1-(piperidin-4-yl)-1H-pyrazol-4-yl)-3-(5-(pyridin-3-yl)oxazol-2-yl)pyridin-2-amine], the IC50 in test [1], in test [2] and in test [3] was under 500 nM each time.
For `CCCCCCCCCCCCN1CCC(n2cc(-c3cnc(N)c(-c4nnc(-c5c(Cl)cccc5Cl)o4)c3)cn2)CC1` [3-(5-(2,6-dichlorophenyl)-1,3,4-oxadiazol-2-yl)-5-(1-(1-dodecylpiperidin-4-yl)-1H-pyrazol-4-yl)pyridin-2-amine], the IC50 in test [1] lay in the range of 500 to 1000 nM; in test [2] it was 1000 to 10000 nM; in test [3] it was 1000 to 10000 nM.
Take `Nc1ncc(-c2cnn(C3CCN(C(=O)C4CC4)CC3)c2)cc1-c1ncc(-c2cccc(Cl)c2)o1` [(4-(4-(6-amino-5-(5-(3-chlorophenyl)oxazol-2-yl)pyridin-3-yl)-1H-pyrazol-1-yl)piperidin-1-yl)(cyclopropyl)methanone]: the IC50 in test [1] is 500 to 1000 nM; in test [2] it was 1000 to 10000 nM; in test [3] it was under 500 nM.
The corresponding values for `Nc1ncc(-c2cnn(C3CCNCC3)c2)cc1-c1cc(-c2ccccc2)on1` [3-(5-phenylisoxazol-3-yl)-5-(1-(piperidin-4-yl)-1H-pyrazol-4-yl)pyridin-2-amine] are under 500 nM, under 500 nM and under 500 nM.
Regarding `Nc1ncc(-c2cnn(C3CCNCC3)c2)cc1-c1nnc(-c2cc(F)ccc2F)o1` [3-(5-(2,5-difluorophenyl)-1,3,4-oxadiazol-2-yl)-5-(1-(piperidin-4-yl)-1H-pyrazol-4-yl)pyridin-2-amine], the IC50 in test [1] and in test [3] was under 500 nM each time.
As to `Nc1ncc(-c2cnn(C3CCN(C(=O)C4CC4)CC3)c2)cc1-c1nc(-c2ccccc2)no1` [(4-(4-(6-amino-5-(3-phenyl-1,2,4-oxadiazol-5-yl)pyridin-3-yl)-1H-pyrazol-1-yl)piperidin-1-yl)(cyclopropyl)methanone], the IC50 in test [1], in test [2] and in test [3] was 1000 to 10000 nM throughout.
As for `Nc1ncc(-c2cn[nH]c2)cc1-c1noc(-c2ccccc2)n1` [3-(5-phenyl-1,2,4-oxadiazol-3-yl)-5-(1H-pyrazol-4-yl)pyridin-2-amine], the values for the IC50 in test [1], in test [2] and in test [3] were under 500 nM, 1000 to 10000 nM and under 500 nM, respectively.
For the molecule `CC(C)(C)OC(=O)N1CCC(n2cc(-c3cnc(N)c(-c4nnc(-c5ccc(F)cc5)o4)c3)cn2)CC1` [tert-butyl 4-(4-(6-amino-5-(5-(4-fluorophenyl)-1,3,4-oxadiazol-2-yl)pyridin-3-yl)-1H-pyrazol-1-yl)piperidine-1-carboxylate], the IC50 in test [1], in test [2] and in test [3] was 1000 to 10000 nM each time.
Take `CC(C)(C)OC(=O)N1CCC(n2cc(-c3cnc(N)c(-c4nnc(-c5ccccc5)o4)c3)cn2)CC1` [tert-butyl 4-(4-(6-amino-5-(5-phenyl-1,3,4-oxadiazol-2-yl)pyridin-3-yl)-1H-pyrazol-1-yl)piperidine-1-carboxylate]: the IC50 in test [1], in test [2] and in test [3] was 1000 to 10000 nM throughout.
With `Nc1ncc(-c2cnn(C3CCCCC3)c2)cc1-c1nc(-c2c(Cl)cccc2Cl)no1` [5-(1-cyclohexyl-1H-pyrazol-4-yl)-3-(3-(2,6-dichlorophenyl)-1,2,4-oxadiazol-5-yl)pyridin-2-amine], the IC50 in test [1] was under 500 nM; in test [2], 1000 to 10000 nM; in test [3] it was 1000 to 10000 nM.
For the molecule `CC(C)(C)OC(=O)N1CCC(n2cc(-c3cnc(N)c(-c4nnc(-c5c(Cl)cccc5Cl)o4)c3)cn2)CC1` [tert-butyl 4-(4-(6-amino-5-(5-(2,6-dichlorophenyl)-1,3,4-oxadiazol-2-yl)pyridin-3-yl)-1H-pyrazol-1-yl)piperidine-1-carboxylate], the values for the IC50 in test [1] and in test [3] were 1000 to 10000 nM and 500 to 1000 nM, respectively.
The like results for `Nc1ncc(-c2cnn(C3CCNCC3)c2)cc1-c1nnc(-c2c(Cl)cccc2Cl)o1` [3-(5-(2,6-dichlorophenyl)-1,3,4-oxadiazol-2-yl)-5-(1-(piperidin-4-yl)-1H-pyrazol-4-yl)pyridin-2-amine] were, in that order, under 500 nM and under 500 nM.

What is called IC50 is the midpoint of a concentration-inhibition curve.
